# Where two headings read alike, the source gives them in different places.
# Tests used:
# Format in all cases: cell-based
# EC882 E. coli imp = assay: broth dilution MIC, E. coli EC882
# Source text: (§1) We have collected MIC data for a total of 50 novel macrolides that this platform has produced against over 21 unique strains of B. subtilis, E. coli, S. aureus, S. pneumoniae, and H. influenzae, including several multidrug-resistant strains, with a special focus on macrolide resistant mechanisms (vide supra). Azithromycin was included as a control macrolide. CLSI standard procedures for broth dilution MIC determination were used. […] These genotypes can be constitutive or inducible. The finding that C4-epi (unnatural) isomers of the “azaketolide” macrolide class have enhanced activities relative to C4 natural isomers is very exciting.
# EC878 E. coli tolC = assay: broth dilution MIC, E. coli EC878
# Source text: as §1
# EC107 E. coli ATCC25922 = assay: broth dilution MIC, E. coli EC107
# Source text: as §1
# H. influenzae strains = assay: MIC against H. influenzae strains (Table M8); settings: Haemophilus influenzae
# Procedure, shortened: (§2)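 Antibacterial activity is reported as MIC by CLSI broth dilution. Panel strains were chosen with a focus on macrolide-resistance mechanisms. Azithromycin control included.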
# E. coli strains = assay: MIC against E. coli strains (Table M7); settings: Escherichia coli, ATCC25922, E. coli ATCC 25922
# Procedure, shortened: as §2
# K. pneumoniae strains = assay: MIC against K. pneumoniae strains (Table M8); settings: Klebsiella pneumoniae, K. pneumoniae 10031
# E. faecalis strains = assay: MIC against E. faecalis strains (Table M8); settings: Enterococcus faecalis, E. faecalis 29212
# A. baumannii strains = assay: MIC against A. baumannii strains (Table M8)
# S. aureus strains = assay: MIC against S. aureus strains (Table M7); settings: for MIC: Staphylococcus aureus
# Procedure, shortened: as §2
# S. pneumoniae strains = assay: MIC against S. pneumoniae strains (Tables M7, M8); settings: Streptococcus pneumoniae
# Source text: CLSI standard procedures for broth dilution MIC determination were used. […] These genotypes can be constitutive or inducible.
# [1] = tested on: SA101 S. aureus ATCC29213; assay: broth dilution MIC, S. aureus SA101
# Source text: as §1
# [2] = tested on: BS1723 B. subtilis BS168 WT wild type; assay: broth dilution MIC, B. subtilis BS1723
# Source text: as §1
# BS1725 B. subtilis ermC = assay: broth dilution MIC, B. subtilis BS1725
# Source text: as §1
# [3] = Escherichia coli, read-out: MIC
# [4] = Staphylococcus aureus, ATCC29213, SA101 S. aureus ATCC29213, read-out: MIC
# [5] = Bacillus subtilis, BS1725 B. subtilis ermC (+ery)
# [6] = Bacillus subtilis, BS1725 B. subtilis ermC (−ery)
# [7] = Bacillus subtilis, BS1723 B. subtilis BS168 WT wild type, read-out: MIC
Structure (SMILES),MIC (EC882 E. coli imp; Escherichia coli),MIC (EC878 E. coli tolC; Escherichia coli),MIC (EC107 E. coli ATCC25922; [3]),"MIC [1, 4]",MIC (BS1725 B. subtilis ermC; [5]),MIC (BS1725 B. subtilis ermC; [6]),"MIC [2, 7]",further results
"CC[C@H]1OC(=O)[C@H](C)[C@@H](O[C@H]2C[C@@](C)(OC)[C@@H](O)[C@H](C)O2)[C@H](C)[C@@H](O[C@@H]2O[C@H](C)C[C@H](N(C)C)[C@H]2O)[C@](C)(O)C[C@@H](C)C(=O)[C@H](C)[C@@H](O)[C@]1(C)O [Erythromycin, erythromycin, reference compound]",2 µg/mL,2 µg/mL,> 32 µg/mL,0.5 µg/mL,> 32 µg/mL,> 32 µg/mL,,"MIC (H. influenzae strains; H. influenzae 49247, read-out: MIC H. influenzae (49247)): 2 µg/mL; MIC (H. influenzae strains; H. influenzae 49766, read-out: MIC H. influenzae (49766)): 8 µg/mL; MIC (E. coli strains): > 32 µg/mL; MIC (K. pneumoniae strains): 8 µg/mL; MIC (E. faecalis strains): 2 µg/mL; MIC A. baumannii (BAA747-1) (A. baumannii strains; A. baumannii BAA747-1): >32 µg/mL; MIC (A. baumannii strains; Acinetobacter baumannii, BAA747, A. baumannii BAA747-1): 32 µg/mL; MIC S. aureus (ATCC 29213) (S. aureus strains; S. aureus ATCC 29213): 0.25 µg/mL; MIC (S. aureus strains; ATCC29213, S. aureus ATCC 29213, read-out: MIC S. aureus (ATCC 29213)): 0.5 µg/mL; MIC (S. aureus strains; S. aureus 183, read-out: MIC S. aureus (183)): > 32 µg/mL; MIC (S. aureus strains; S. aureus 506, read-out: MIC S. aureus (506)): > 32 µg/mL; MIC (S. aureus strains; S. aureus 1708, read-out: MIC S. aureus (1708)): > 32 µg/mL; MIC (S. aureus strains; USA300, S. aureus USA300, read-out: MIC S. aureus (USA300)): > 32 µg/mL; MIC (S. pneumoniae strains; S. pneumoniae 160, read-out: MIC S. pneumonae (160)): 2 µg/mL; MIC (S. pneumoniae strains; S. pneumoniae 1509, read-out: MIC S. pneumoniae (1509)): > 32 µg/mL; MIC (S. pneumoniae strains; S. pneumoniae 1533, read-out: MIC S. pneumoniae (1533)): > 32 µg/mL; MIC (S. pneumoniae strains; S. pneumoniae 1537, read-out: MIC S. pneumoniae (1537)): > 32 µg/mL; MIC (S. pneumoniae strains; S. pneumoniae 49619, read-out: MIC S. pneumoniae (49619)): ≤ 0.0625 µg/mL; MIC ([2]; Bacillus subtilis): 0.125 µg/mL"
CC[C@H]1OC(=O)[C@H](C)C(=O)C[C@@H](O[C@@H]2OC(C)CC(N(C)C)C2O)[C@](C)(OC)C[C@@H](C)CN(C(C)=O)[C@H](C)[C@H]2N(CCCCn3cc(-c4nccs4)nn3)C(=O)O[C@]12C (stereo partly drawn) [FSM-10790],1 µg/mL,4 µg/mL,> 32 µg/mL,> 32 µg/mL,> 32 µg/mL,> 32 µg/mL,> 32 µg/mL,
CC[C@H]1OC(=O)[C@H](C)C(=O)C[C@@H](O[C@@H]2OC(C)CC(N(C)C)C2O)[C@](C)(OC)C[C@@H](C)CN(C(C)=O)[C@H](C)[C@H]2N(CCCCn3cc(-c4nc5ccccc5s4)nn3)C(=O)O[C@]12C (stereo partly drawn) [FSM-10791],0.5 µg/mL,2 µg/mL,> 32 µg/mL,> 32 µg/mL,> 32 µg/mL,> 32 µg/mL,> 32 µg/mL,
CC[C@H]1OC(=O)[C@H](C)C(=O)C[C@@H](O[C@@H]2OC(C)CC(N(C)C)C2O)[C@](C)(OC)C[C@@H](C)CN(C(C)=O)[C@H](C)[C@H]2N(CCCCn3cc(-c4ccccn4)nn3)C(=O)O[C@]12C (stereo partly drawn) [FSM-10792],1 µg/mL,4 µg/mL,> 32 µg/mL,> 32 µg/mL,> 32 µg/mL,> 32 µg/mL,> 32 µg/mL,
CC[C@H]1OC(=O)[C@H](C)C(=O)C[C@@H](O[C@@H]2OC(C)CC(N(C)C)C2O)[C@](C)(OC)C[C@@H](C)CN(C(C)=O)[C@H](C)[C@H]2N(CCCCn3cc(-c4cccnn4)nn3)C(=O)O[C@]12C (stereo partly drawn) [FSM-10794],16 µg/mL,8 µg/mL,> 32 µg/mL,> 32 µg/mL,> 32 µg/mL,> 32 µg/mL,> 32 µg/mL,
CC[C@H]1OC(=O)C(C)(F)C(=O)[C@@H](C)[C@@H](O[C@@H]2OC(C)CC(N(C)C)C2O)[C@](C)(OC)C[C@@H](C)CN(C)[C@H](C)[C@H]2N(CCCCn3cc(-c4nccs4)nn3)C(=O)O[C@]12C (stereo partly drawn) [FSM-20717],,,,,,,,MIC (EC882 E. coli imp): 1 µg/mL; MIC (EC878 E. coli tolC): 1 µg/mL; MIC (EC107 E. coli ATCC25922): >32 µg/mL; MIC ([1]; SA101 S. aureus ATCC29213): 16 µg/mL; MIC ([2]; BS1723 B. subtilis BS168 WT wild type): 16 µg/mL; MIC (BS1725 B. subtilis ermC; BS1725 B. subtilis ermC (+ery)): >32 µg/mL; MIC (BS1725 B. subtilis ermC; BS1725 B. subtilis ermC (−ery)): 8 µg/mL
CC[C@H]1OC(=O)C(C)(F)C(=O)[C@@H](C)[C@@H](O[C@@H]2OC(C)CC(N(C)C)C2O)[C@](C)(OC)C[C@@H](C)CN[C@H](C)[C@H]2N(CCCCn3cc(-c4nc5ccccc5s4)nn3)C(=O)O[C@]12C (stereo partly drawn) [FSM-20722],0.5 µg/mL,1 µg/mL,> 32 µg/mL,8 µg/mL,> 32 µg/mL,,16 µg/mL,
CC[C@H]1OC(=O)[C@H](C)C(=O)[C@H](C)[C@@H](O[C@@H]2OC(C)CC(N(C)C)C2O)[C@](C)(OC)C[C@@H](C)CN(C(C)=O)[C@H](C)[C@H]2N(CCCCn3cc(-c4nccs4)nn3)C(=O)O[C@]12C (stereo partly drawn) [FSM-20763],2 µg/mL,4 µg/mL,> 32 µg/mL,16 µg/mL,> 32 µg/mL,,16 µg/mL,
CC[C@H]1OC(=O)[C@H](C)C(=O)[C@H](C)[C@@H](O[C@@H]2OC(C)CC(N(C)C)C2O)[C@](C)(OC)C[C@@H](C)CN(C(C)=O)[C@H](C)[C@H]2N(CCCCn3cc(-c4ccccn4)nn3)C(=O)O[C@]12C (stereo partly drawn) [FSM-20766],1 µg/mL,4 µg/mL,> 32 µg/mL,16 µg/mL,> 32 µg/mL,,32 µg/mL,

# Reference: US9982005B2, “Macrolides and methods of their preparation and use” (President and Fellows of Harvard College, priority 2013, dated 2018)
